Experimental data taken from ChEMBL document CHEMBL6134832, “Expanding the utilization of binding pockets proves to be effective for noncovalent small molecule inhibitors against SARS-CoV-2 Mpro” (Eur J Med Chem, 2025).
The source made the active and inactive calls. The rule behind the calls is not given here.

Legend:
Assay type in all cases: functional, organism-based
[1] = system: SARS-CoV-2; assay: Antiviral activity against SARS-CoV-2 omicron BA.5 variant infected in po dosed K18-hACE2 transgenic mouse model assessed as reduction in viral RNA loads in lung pretreated for 2 hrs followed by viral infection and measured on 2 dpi; conditions: Severe acute respiratory syndrome coronavirus 2, time 50.0 hrs
[2] = system: SARS-CoV-2; assay: Antiviral activity against SARS-CoV-2 omicron BA.5 variant infected in K18-hACE2 transgenic mouse model assessed as reduction in viral RNA loads in lung at 80 mg/kg, po pretreated for 2 hrs followed by viral infection and measured on 2 dpi; conditions: Severe acute respiratory syndrome coronavirus 2, time 50.0 hrs
[3] = system: SARS-CoV-2; assay: Antiviral activity against SARS-CoV-2 omicron BA.5 variant infected in K18-hACE2 transgenic mouse model assessed as reduction in viral titers in lung at 20 to 80 mg/kg, po pretreated for 2 hrs followed by viral infection and measured on 2 dpi; conditions: Severe acute respiratory syndrome coronavirus 2, dose 20-80 mg/kg, time 50.0 hrs
[4] = system: SARS-CoV-2; assay: Antiviral activity against SARS-CoV-2 omicron BA.5 variant infected in K18-hACE2 transgenic mouse model assessed as reduction in disease severity at 20 mg/kg, po pretreated for 2 hrs followed by viral infection and measured on 2 dpi; conditions: Severe acute respiratory syndrome coronavirus 2, time 50.0 hrs
[5] = system: SARS-CoV-2; assay: Antiviral activity against SARS-CoV-2 omicron BA.5 variant infected in K18-hACE2 transgenic mouse model assessed as reduction in degree of damage at 20 mg/kg, po pretreated for 2 hrs followed by viral infection and measured on 2 dpi; conditions: Severe acute respiratory syndrome coronavirus 2, time 50.0 hrs
[6] = system: SARS-CoV-2; assay: Antiviral activity against SARS-CoV-2 omicron BA.5 variant infected in K18-hACE2 transgenic mouse model assessed as septal thickening in lung at 40 to 80 mg/kg, po pretreated for 2 hrs followed by viral infection and measured on 2 dpi; conditions: Severe acute respiratory syndrome coronavirus 2, dose 40-80 mg/kg, time 50.0 hrs
[7] = system: SARS-CoV-2; assay: Antiviral activity against SARS-CoV-2 omicron BA.5 variant infected in K18-hACE2 transgenic mouse model assessed as inflammatory cell infiltration in lung at 40 to 80 mg/kg, po pretreated for 2 hrs followed by viral infection and measured on 2 dpi; conditions: Severe acute respiratory syndrome coronavirus 2, dose 40-80 mg/kg, time 50.0 hrs
[8] = system: SARS-CoV-2; assay: Antiviral activity against SARS-CoV-2 omicron BA.5 variant infected in K18-hACE2 transgenic mouse model assessed as reduction in viral RNA loads in lung at 30 mg/kg, po pretreated for 2 hrs followed by viral infection and measured on 2 dpi; conditions: Severe acute respiratory syndrome coronavirus 2, time 50.0 hrs
[9] = system: SARS-CoV-2; assay: Antiviral activity against SARS-CoV-2 omicron BA.5 variant infected in K18-hACE2 transgenic mouse model assessed as reduction in viral titers in lung at 30 mg/kg, po pretreated for 2 hrs followed by viral infection and measured on 2 dpi; conditions: Severe acute respiratory syndrome coronavirus 2, time 50.0 hrs
[10] = system: SARS-CoV-2; assay: Antiviral activity against SARS-CoV-2 omicron BA.5 variant infected in K18-hACE2 transgenic mouse model assessed as inflammatory cell infiltration in lung at 40 mg/kg, po pretreated for 2 hrs followed by viral infection and measured on 2 dpi; conditions: Severe acute respiratory syndrome coronavirus 2, time 50.0 hrs
[11] = system: SARS-CoV-2; assay: Antiviral activity against SARS-CoV-2 omicron BA.5 variant infected in K18-hACE2 transgenic mouse model assessed as septal thickening in lung at 40 mg/kg, po pretreated for 2 hrs followed by viral infection and measured on 2 dpi; conditions: Severe acute respiratory syndrome coronavirus 2, time 50.0 hrs
[12] = system: SARS-CoV-2; assay: Antiviral activity against SARS-CoV-2 omicron BA.5 variant infected in K18-hACE2 transgenic mouse model assessed as reduction in viral titers in lung at 15 to 90 mg/kg, po pretreated for 2 hrs followed by viral infection and measured on 2 dpi; conditions: Severe acute respiratory syndrome coronavirus 2, dose 15-90 mg/kg, time 50.0 hrs
[13] = system: SARS-CoV-2; assay: Antiviral activity against SARS-CoV-2 omicron BA.5 variant infected in K18-hACE2 transgenic mouse model assessed as reduction in disease severity at 15 to 30 mg/kg, po pretreated for 2 hrs followed by viral infection and measured on 2 dpi; conditions: Severe acute respiratory syndrome coronavirus 2, dose 15-30 mg/kg, time 50.0 hrs
[14] = system: SARS-CoV-2; assay: Antiviral activity against SARS-CoV-2 omicron BA.5 variant infected in K18-hACE2 transgenic mouse model assessed as reduction in degree of damage at 15 to 30 mg/kg, po pretreated for 2 hrs followed by viral infection and measured on 2 dpi; conditions: Severe acute respiratory syndrome coronavirus 2, dose 15-30 mg/kg, time 50.0 hrs
[15] = system: SARS-CoV-2; assay: Antiviral activity against SARS-CoV-2 omicron BA.5 variant infected in K18-hACE2 transgenic mouse model assessed as septal thickening in lung at 90 mg/kg, po pretreated for 2 hrs followed by viral infection and measured on 2 dpi; conditions: Severe acute respiratory syndrome coronavirus 2, time 50.0 hrs
[16] = system: SARS-CoV-2; assay: Antiviral activity against SARS-CoV-2 omicron BA.5 variant infected in K18-hACE2 transgenic mouse model assessed as inflammatory cell infiltration in lung at 90 mg/kg, po pretreated for 2 hrs followed by viral infection and measured on 2 dpi; conditions: Severe acute respiratory syndrome coronavirus 2, time 50.0 hrs

Structure (SMILES)	Activity [1]	Activity [2]	Activity [3]	Activity [4]	Activity [5]	Activity [6]	Activity [7]	Activity [8]	Activity [9]	Activity [10]	Activity [11]	Activity [12]	Activity [13]	Activity [14]	Activity [15]	Activity [16]
Cn1cc2cc(/N=c3\[nH]c(=O)n(-c4cccnc4)c(=O)n3Cc3cc(F)c(F)cc3F)c(Cl)cc2n1	Dose-dependent-effect	Active	Active	Active	Active	Active	Mild_effect	–	–	–	–	–	–	–	–	–
Cn1cnc(Cn2c(=O)[nH]/c(=N\c3cc4cn(C)nc4cc3Cl)n(Cc3cc(F)c(F)cc3F)c2=O)n1	Dose-dependent-effect	–	–	–	–	–	–	Active	Active	Mild_effect	Active	–	–	–	–	–
Cc1ccc(C#N)cc1Cn1c(=O)n(-c2cncc(SC3CC3)c2)c(=O)[nH]/c1=N\c1cc2cn(C)nc2cc1Cl	Dose-dependent-effect	–	–	–	–	–	–	–	–	–	–	Active	Active	Active	Active	Mild_effect
